Results as given in patent US20250066370A1, “BICYCLIC TRIAZINE DERIVATIVES FOR THE TREATMENT OF CANCER” (DEUTSCHES KREBSFORSCHUNGSZENTRUM, priority 2022, published 2025).

Experiments:
Format in all cases: cell-based, human
CYCLIN K = CYCLIN K nuclear protein level: immunofluorescence/high content analysis in CAL-120 cells; details: 24 h, nuclear CCNK staining intensity, median, read-out: CYCLIN K degradation IF, DC50 - [mol/l] (median)
Description: CAL-120 human breast cancer cells (DSMZ ACC 459) are seeded in 1536-well microtiter plates (800 cells per well) containing 50 nanoL of compounds in Dose-Response. Control wells received DMSO or Example 4. Plates are then incubated for 24 h at 37° C. in an humidified incubator and fixed with 4% PFA for 10 min. Then immunofluorescence (IF) against CYCLIN K (ThermoFisher Scientific CCNK Antibody #PA5-85020, rabbit, 1:200 dilution) is performed using standard IF protocols. Cells are then stained with Hoechst 33342 (Life Technologies, H-1399, 0.1 microg/ml) and imaged on an automated confocal microscopy system (e.g. Perkin Elmer Opera Phenix). Nuclear and cytoplasmic intensity as well as the nuclear/cytoplasmic intensity ratio is determined by automated image analysis using custom generated scripts (MetaXpress). Data is then transferred to Genedata Screener software, normalized to DMSO and control and DC50 values (degrading concentration to achieve 50% reduction of nuclear CCNK staining intensity relative to controls) are reported.

MDA-MB-231-CDK12d-res = test: Proliferation assay CDK12 degrader resistant MDA-MB-231; details: for IC50: Homo sapiens, 96 h, CDK12 degrader resistant MDA-MB-231 cells, 4 days, median, read-out: Prolif-MDA MB-231-CDK12d-res, IC50 - [mol/] (median); for Ratio (Prolif-MDA MB-231-CDK12d-res IC50 / Prolif-MDA MB-231 IC50): resistant versus parental MDA-MB-231 cells
Source text: (§1) CDK12-degrader resistant cells were generated by propagation of CAL-120 human breast adenocarcinoma cells (DSMZ ACC-459) and MDA-MB-231 human breast cancer cells (ATCC HTB-26) in presence of increasing concentrations of the CDK12 degrader compound example 4 from WO 2021/116178. Initial concentrations of example 4 were 2.0E-08 M for CAL-120 cells and 4.6E-08 M for MDA-MB-231 cells, corresponding to ca. 2-fold the IC50 of inhibition of the cells in an proliferation assay. After the treated cells recovered and proliferated again the concentration of compound example 4 was increased to 3-fold IC50.
(§2) To determine the inhibitory effect of test compounds on proliferation of CAL-120-CDK12d-res, MDA-MB-231-CDK12d-res the cells were plated at a density of 4,000 cells/well in a 96-well multitier plate in 200 microL of their respective growth medium supplemented 10% fetal calf serum. After 24 hours, the cells of one plate (zero-point plate) were stained with crystal violet (see below), while the medium of the other plates was supplemented with the test substances in various concentrations (0 micromol/L, as well as in the range of 0.01-10 micromol/L; the final concentration of the solvent dimethyl sulfoxide was adjusted to 0.1%) using a Tecan HP D300 Digital Dispenser. The cells were incubated for 4 days in the presence of test substances. Cell proliferation was determined by staining the cells with crystal violet: the cells were fixed by adding 20 microL/measuring point of an 11% glutaric aldehyde solution for 15 minutes at room temperature. After three washing cycles of the fixed cells with water, the plates were dried at room temperature. The cells were stained by adding 100 microL/measuring point of a 0.1% crystal violet solution (pH 3.0). After three washing cycles of the stained cells with water, the plates were dried at room temperature. The dye was dissolved by adding 100 microL/measuring point of a 10% acetic acid solution. The extinction was determined by photometry at a wavelength of 595 nm. The change of cell number, in percent, was calculated by normalization of the measured values to the extinction values of the zero-point plate (=0%) and the extinction of the untreated (0 μM) cells (=100%). The IC50 values (inhibitory concentration at 50% of maximal effect) were determined by means of a 4 parameter fit.

CAL-120-CDK12d-res = test: Proliferation assay CDK12 degrader resistant CAL-120; details: for IC50: Homo sapiens, 96 h, CDK12 degrader resistant CAL-120 cells, 4 days, median, read-out: Prolif-CAL-120-CDK12d-res, IC50 - [mol/l] (median); for Ratio (Prolif-CAL-120-CDK12d-res IC50 / Prolif-CAL-120 IC50): resistant versus parental CAL-120 cells
Source text: as §1, §2

Row | Compound | DC50 (CYCLIN K) | IC50 (MDA-MB-231-CDK12d-res) | Ratio (Prolif-MDA MB-231-CDK12d-res IC50 / Prolif-MDA MB-231 IC50) (MDA-MB-231-CDK12d-res) | IC50 (CAL-120-CDK12d-res) | Ratio (Prolif-CAL-120-CDK12d-res IC50 / Prolif-CAL-120 IC50) (CAL-120-CDK12d-res)
1 | FC(F)(F)Oc1ccc(-c2nnc(CNc3nc(N4CCOCC4)nc4c(C(F)(F)F)cnn34)[nH]2)cc1 [Example 5, 2-(morpholin-4-yl)-N-({5-[4-(trifluoromethoxy)phenyl]-4H-1,2,4-triazol-3-yl}methyl)-8-(trifluoromethyl)pyrazolo[1,5-a][1,3,5]triazin-4-amine] | > 1000 nM | – | – | – | –
2 | FC(F)(F)c1ccc(-c2nnc(CNc3nc(N4CCOCC4)nn4c(C(F)(F)F)cnc34)[nH]2)cc1 [Example 11, 2-(morpholin-4-yl)-7-(trifluoromethyl)-N-({5-[4-(trifluoromethyl)phenyl]-4H-1,2,4-triazol-3-yl}methyl)imidazo[2,1-f][1,2,4]triazin-4-amine] | > 1000 nM | – | – | – | –
3 | COc1ccc(-c2nnc(CNc3nc(N4CCOCC4)nc4c(C(F)(F)F)cnn34)[nH]2)cn1 [Example 15, N-{[5-(6-methoxypyridin-3-yl)-4H-1,2,4-triazol-3-yl]methyl}-2-(morpholin-4-yl)-8-(trifluoromethyl)pyrazolo[1,5-a][1,3,5]triazin-4-amine] | > 1000 nM | – | – | – | –
4 | FC(F)(F)Oc1ccc(-c2nnc(CNc3nc(N4CCOCC4)nn4c(C(F)(F)F)cnc34)[nH]2)cn1 [Example 19, 2-(morpholin-4-yl)-N-({5-[6-(trifluoromethoxy)pyridin-3-yl]-4H-1,2,4-triazol-3-yl}methyl)-7-(trifluoromethyl)imidazo[2,1-f][1,2,4]triazin-4-amine] | – | 103 nM | 2.7 | 97.1 nM | 1.5
5 | Cc1ccc(-c2nnc(CNc3nc(N4CCOCC4)nn4c(C(F)(F)F)cnc34)[nH]2)cn1 [Example 23, N-{[5-(6-methylpyridin-3-yl)-4H-1,2,4-triazol-3-yl]methyl}-2-(morpholin-4-yl)-7-(trifluoromethyl)imidazo[2,1-f][1,2,4]triazin-4-amine] | 124 nM | – | – | – | –
6 | FC(F)(F)Oc1ccc(-c2cnc(CNc3nc(N4CCOCC4)nc4c(C(F)(F)F)cnn34)[nH]2)cc1 [Example 10, 2-(morpholin-4-yl)-N-({5-[4-(trifluoromethoxy)phenyl]-1H-imidazol-2-yl}methyl)-8-(trifluoromethyl)pyrazolo[1,5-a][1,3,5]triazin-4-amine] | 228 nM | 156 nM | 1.3 | 139 nM | 2.0
7 | FC(F)(F)c1ccc(-c2cnc(CNc3nc(N4CCOCC4)nn4c(C(F)(F)F)cnc34)[nH]2)cn1 [Example 12, 2-(morpholin-4-yl)-7-(trifluoromethyl)-N-({5-[6-(trifluoromethyl)pyridin-3-yl]-1H-imidazol-2-yl}methyl)imidazo[2,1-f][1,2,4]triazin-4-amine] | – | 31 nM | 1.4 | 22.1 nM | 1.5
8 | FC(F)(F)c1ccc(-c2nnc(CNc3nc(N4CCOCC4)nc4c(C(F)(F)F)cnn34)[nH]2)cc1 [Example 6, 2-(morpholin-4-yl)-8-(trifluoromethyl)-N-({5-[4-(trifluoromethyl)phenyl]-4H-1,2,4-triazol-3-yl}methyl)pyrazolo[1,5-a][1,3,5]triazin-4-amine] | > 1000 nM | – | – | – | –
9 | FC(F)(F)c1ccc(-c2cnc(CNc3nc(N4CCOCC4)nc4c(C(F)(F)F)cnn34)[nH]2)cc1 [Example 9, 2-(morpholin-4-yl)-8-(trifluoromethyl)-N-({5-[4-(trifluoromethyl)phenyl]-1H-imidazol-2-yl}methyl)pyrazolo[1,5-a][1,3,5]triazin-4-amine] | – | 150 nM | 0.8 | 105 nM | 1.0
